Test [1] relates to globally ischemic rat hearts. The test can be described thus: Parachlorophenylalanine pretreatment of rats, then global ischemia/reperfusion of the isolated hearts. The note with it: for time to contracture: parachlorophenylalanine pretreatment i.p., compared to vehicle, p<0.05, Figure 4. The procedure:
(§1) To determine the effect of serotonin receptor agonists and antagonists, male Sprague-Dawley rats (450-550 g) were prepared as described below. The rats were anesthetized using 100 mg/kg sodium pentobarbital (i.p.). They were intubated and then treated with i.v. heparin (1000 U/kg). While being mechanically ventilated, their hearts were perfused in situ via retrograde cannulation of the aorta. The hearts were then excised and […] moved to a Langendorff apparatus where they were perfused with Krebs-henseleit bicarbonate buffer solution ((mM): 112 NaCI, 25 NaHC03, 5 KCI, 1.2 MgS04, 1 KH2P04, 1.25 CaC12, 2 pyruvate and 11.5 dextrose bubbled with 95% 02 - 5% C02) at a constant perfusion pressure (85 mm Hg). A water-filled latex balloon attached to a metal cannula was then inserted into the left ventricle and connected to a Statham pressure transducer for measurement of left ventricular pressure. The hearts were allowed to equilibrate for 15 min, at which time end diastolic pressure (EDP) was adjusted to 5 mm Hg and this balloon volume was maintained for the duration of the experiment. Pre-ischemia or pre-drug function, heart rate and coronary flow (extracorporeal electromagnetic flow probe) were then measured. Left ventricular developed pressure (LVDP) was calculated from the difference between left ventricular peak systolic pressure and EDP. Cardiac temperature was maintained throughout the experiment by submerging the hearts in 37 ° C buffer which was allowed to accumulate in a stoppered, heated chamber.
To determine if endogenous 5HT is mediating a pro-ischemic effect in isolated hearts, rats, prepared as described below were treated with parachlorophenylalanine. Parachlorophenylalanine depletes brain and peripheral 5HT by inhibition of tryptophan hydroxylase, the rate limiting step in 5HT synthesis. […] Male Sprague-Dawely rats (450-550 g) were injected with i.p. 105 mg/kg parachlorophenylalanine (n = 10) or its vehicle (water, n = 6) on three consecutive days. On the fourth day, the rats were anesthetized with 100 mg/kg sodium pentobarbital. The hearts were then excised and moved to an isolated heart apparatus as described above. The hearts were then subjected to 25 minutes to global ischemia and 30 minutes of reperfusion. Time to contracture, recovery of contractile function, coronary flow and cumulative LDH release were measured as described above.

Test [2] deals with globally ischemic, isolated rat hearts. The test can be described thus: Effect of 5HT, alone or with 5HT2 antagonist, on time to contracture and pre-ischemic function in isolated rat hearts. The note with it: for Coronary Flow / HR / LVDP: pre-ischemic. The procedure: To determine the effect of serotonin receptor agonists and antagonists, male Sprague-Dawley rats (450-550 g) were prepared as described below. The rats were anesthetized using 100 mg/kg sodium pentobarbital (i.p.). They were intubated and then treated with i.v. heparin (1000 U/kg). While being mechanically ventilated, their hearts were perfused in situ via retrograde cannulation of the aorta. […] A water-filled latex balloon attached to a metal cannula was then inserted into the left ventricle and connected to a Statham pressure transducer for measurement of left ventricular pressure. […] Pre-ischemia or pre-drug function, heart rate and coronary flow (extracorporeal electromagnetic flow probe) were then measured. Left ventricular developed pressure (LVDP) was calculated from the difference between left ventricular peak systolic pressure and EDP. Cardiac temperature was maintained throughout the experiment by submerging the hearts in 37 ° C buffer which was allowed to accumulate in a stoppered, heated chamber. In another series of hearts, the effect of 5HT on the severity of ischemia was determined. […] Vehicle (0.1% DMSO) given 10 minutes before ischemia (n = 5). The hearts were subjected to global ischemia as described above and time to contracture determined. Reperfusion function and LDH release were not determined in this group.

The test system of test [3] is globally ischemic rat hearts. In words: Global ischemia (25 min) and reperfusion (30 min) in isolated perfused rat hearts, 5HT2 antagonists. The note with it: for EC25: Rattus norvegicus, drug given 10 minutes before global ischemia, read-out: EC25 (concentration which increased the time to contracture 25% above vehicle group values). As to the method: as §1
The model of global ischemia in isolated rat hearts was designed such that any protective effects observed are generally due to a direct cardioprotective effect and not to effects on cornonary or peripheral vascular tone. Also, because the hearts are perfused with an oxygenated buffer solution, platelets or the normal components of an inflammatory response are probably not important mediators of the ischemic/reperfusion injury observed in this model. […] Agents which exert their protective effects either through their effects on the peripheral or coronary vasculature such as nitrates or agents which act on blood or act on some component of the inflammatory response such as thromboxane A2 receptor antagonists are generally ineffective in this model.
The hearts were divided into the following groups: 1. Vehicle (0.1% DMSO) treatment beginning 10 minutes before the onset of ischemia (n = 8). 2. 0.3-10 µM ketanserin treatment beginning 10 minutes before the onset of ischemia (n = 4-5 per group). 3. 10 µM ketanserin given only during reperfusion (n = 4). 4. 0.1-10 µM cinanserin treatment beginning 10 minutes before global ischemia (n = 4-10). 5. 1-10 µM LY 53857 treatment beginning 10 minutes before the onset of ischemia (n = 4 per group). After 10 minutes of vehicle or drug pretreatment, the hearts were subjected to 25 minutes of total global ischemia which was initiated by shutting off the perfusate flow. Reperfusion was begun (without drug except in the case of group 3 above) and allowed to continue for 30 minutes. At this time, final measurements of EDP, LVDP and coronary flow were obtained. Cumulative LDH relase was measured in the reperfusate and was used as the index of cellular and membrane viability. In all hearts, the time to contracture during ischemia was measured and used as an index of cardioprotection during ischemia. Time to contracture is defined as the time (minutes) necessary for the first 5 mm Hg increase in EDP to occur during global ischemia. The data were expressed as the percent change in time to contracture from vehicle.

Test [4] relates to alpha, Adrenoceptors. In words: Methoxamine-induced contraction in rat aortic rings (alpha1 blocking potency). The note with it: 45 minute incubation; Figure 5A. As to the method: In order to determine the alpha1 blocking potency of cinanserin, ketanserin and LY 53857, their effect on methoxamine induced aortic constriction was determined. Male Sprague-Dawley rats were sacrificed using C02. Aortic rings (3 mm in width) were cut, denuded of endothelium by gently rolling the rings on moistened filter paper, and mounted on stainless steel hooks in 20 mL muscle chambers containing oxygenated physiological salt solution (PSS) of the following composition (in mM): 118.4 NaCI, 4.7 KCI, 1.2 MgS04, 1.2 KH2P04, 1.9 CaC12, 25.0 NaHC03, 10.1 D-glucose, and 0.01 mM Na2EDTA maintained at 37 °C. The hooks were connected to Grass FT03C transducers for recording of isometric force development. The rings were stretched to 2 g preload during the equilibration period. During equilibration the rings were periodically stimulated with 24 mM KCI to determine contractility. The effectiveness of endothelial removal was confirmed by the absence of relaxation by 1 µM acetylcholine of a contraction in response to 0.01 µM phenylephrine.
Various concentrations of the test compounds were then added to individual baths and allowed a 45 minute incubation before cumulative concentration response curves for methoxamine (1 nM-30 /1.M) were obtained. Solvent controls were run in parallel. […]

Where [5] appears, read: i.p. 105 mg/kg on three consecutive days, 30 Min. Post-Ischemia.
Setting [6] is: i.p. 105 mg/kg on three consecutive days, Pre-Ischemia.
Where [7] appears, read: 30 μM 5HT + 1 μM Cinanserin, Post-Drug.
The mark [8] stands for this setting: 30 μM 5HT + 1 μM Cinanserin, Pre-Drug.

Entries after “also recorded” stand apart in the source; their conditions may differ. Marks after values point to notes of the source that are not given here.

As to `N[C@@H](Cc1ccc(Cl)cc1)C(=O)O` (racemic) [PCPA, parachlorophenylalanine], the “Coronary Flow” value in test [1] (setting [5]) is 18±2^b mL/min/g; in test [1] (setting [6]) it was 18 ± 1 mL/min/g. Besides, the figures for the HR in test [1] (setting [5]) and in test [1] (setting [6]) were 275±8^b beats/min and 271±8 beats/min, respectively. The LVDP in test [1] (setting [5]) is on record as 60±7^a,b mmHg; in test [1] (setting [6]) it was 128±11 mmHg. In test [1] (i.p. 105 mg/kg on three consecutive days, 30 Min. Post-Ischemia (during reperfusion)), the “LDH Release” value is recorded as 15±2^b u/g. Moreover, the time to contracture result in test [1] (listed as Parachlorophenylalanine) is recorded as “significantly increased time to contracture”; in test [1] (listed as parachlorophenylalanine), “significantly incareased the time to contracture”.
Regarding `NCCc1c[nH]c2ccc(O)cc12` [5HT, serotonin], the “Coronary Flow” value in test [2] (1 μM 5HT, Post-Drug) is 16 ± 1 mL/min/g; in test [2] (1 μM 5HT, Pre-Drug), 16 ± 1 mL/min/g; in test [2] (10 μM 5HT, Post-Drug), 20 ± 2 mL/min/g; in test [2] (10 μM 5HT, Pre-Drug), 19 ± 2 mL/min/g; in test [2] (30 μM 5HT, Post-Drug), 14 ± 1 mL/min/g; in test [2] (30 μM 5HT, Pre-Drug), 16 ± 1 mL/min/g. Further, the “Coronary Flow” value in test [2] (100 μM 5HT, Post-Drug) turned out to be 15 ± 3 mL/min/g; in test [2] (100 μM 5HT, Pre-Drug), 16 ± 2 mL/min/g. The HR in test [2] (1 μM 5HT, Post-Drug) stood at 276±5 beats/min; in test [2] (1 μM 5HT, Pre-Drug), 273±7 beats/min; in test [2] (10 μM 5HT, Post-Drug) it was 294±11 beats/min; in test [2] (10 μM 5HT, Pre-Drug), 300±7 beats/min; in test [2] (30 μM 5HT, Post-Drug), 319±20 beats/min; in test [2] (30 μM 5HT, Pre-Drug) it was 281±15 beats/min. The HR in test [2] (100 μM 5HT, Post-Drug) is reported as 369±19^a,b beats/min; in test [2] (100 μM 5HT, Pre-Drug), 298±10 beats/min. The LVDP in test [2] (1 μM 5HT, Post-Drug) is recorded as 141±3 mmHg; in test [2] (1 μM 5HT, Pre-Drug), 145±4 mmHg; in test [2] (10 μM 5HT, Post-Drug) it was 132±7 mmHg; in test [2] (10 μM 5HT, Pre-Drug), 135±4 mmHg; in test [2] (30 μM 5HT, Post-Drug), 103±11 mmHg; in test [2] (30 μM 5HT, Pre-Drug) it was 117±5 mmHg. For the same compound, the LVDP in test [2] (100 μM 5HT, Post-Drug) was 88±8^a,b mmHg; in test [2] (100 μM 5HT, Pre-Drug), 121±8 mmHg. For the same compound, the “effect on the severity of ischemia (time to contracture)” value in test [2] (1 and 10 µM concentrations) was “without any measurable effect”. The time to contracture entry is on record as “significantly reduced time to contracture” in test [2] (at 30 and 100µM, compared to vehicle, p<0.05, Figure 3); “significantly decrease time to contracture” in test [2] (at >30 µM).
As for `CN(C)CCCSc1ccccc1NC(=O)/C=C/c1ccccc1` [Cinanserin, cinanserin], in test [3] (1-10 µM, compared to vehicle, Figure 2A), the “reperfusion LDH release” value is given as “Significant reductions in LDH”. Moreover, the EC25 in test [3] is 1.6 µM. In test [2] (setting [7]), the “Coronary Flow” value worked out at 18 ± 1 mL/min/g, the HR was 340±11^a,b beats/min and the LVDP was 122±5 mmHg. Besides, in test [2] (setting [8]), the “Coronary Flow” value worked out at 19 ± 1 mL/min/g, the HR is given as 297±9 beats/min and the LVDP is recorded as 139±7 mmHg. The “effect on the pro-ischemic effect of 5HT (time to contracture)” value in test [2] (30 µM 5HT plus antagonist, both given 10 minutes before ischemia, Figure 3) is on record as “completely abolished this pro-ischemic effect; also recorded: abolished the pro-ischemic effect of serotonin”.
Take `CC(O)C(C)OC(=O)C1CC2c3cccc4c3c(cn4C(C)C)CC2N(C)C1` (stereo not drawn) [LY 53857]: the “Coronary Flow” value is 12±1^a mL/min/g in test [3] (1 µM, 30 Min Post-Reperfusion); 15 ± 1 mL/min/g in test [3] (1 µM, Pre-Ischemia, Post-Drug); 17 ± 1 mL/min/g in test [3] (1 µM, Pre-Ischemia, Pre-Drug); 13±1^a mL/min/g in test [3] (3 µM, 30 Min Post-Reperfusion); 17 ± 1 mL/min/g in test [3] (3 µM, Pre-Ischemia, Post-Drug); 17 ± 1 mL/min/g in test [3] (3 µM, Pre-Ischemia, Pre-Drug). Moreover, the “Coronary Flow” value in test [3] (10 µM, 30 Min Post-Reperfusion) came out at 15 ± 3 mL/min/g; in test [3] (10 µM, Pre-Ischemia, Post-Drug), 21 ± 3 mL/min/g; in test [3] (10 µM, Pre-Ischemia, Pre-Drug), 20 ± 3 mL/min/g. Further, the HR in test [3] (1 µM, 30 Min Post-Reperfusion) stood at 230±25 beats/min; in test [3] (1 µM, Pre-Ischemia, Post-Drug), 257±6 beats/min; in test [3] (1 µM, Pre-Ischemia, Pre-Drug), 270±5 beats/min; in test [3] (3 µM, 30 Min Post-Reperfusion) it was 240±13 beats/min; in test [3] (3 µM, Pre-Ischemia, Post-Drug), 265±8 beats/min; in test [3] (3 µM, Pre-Ischemia, Pre-Drug), 274±5 beats/min. The HR in test [3] (10 µM, 30 Min Post-Reperfusion) is 250±4 beats/min; in test [3] (10 µM, Pre-Ischemia, Post-Drug), 252±12^a beats/min; in test [3] (10 µM, Pre-Ischemia, Pre-Drug), 288±10 beats/min. In addition, the LVDP is given as 23±5^a mmHg in test [3] (1 µM, 30 Min Post-Reperfusion); 132±6 mmHg in test [3] (1 µM, Pre-Ischemia, Post-Drug); 141±4 mmHg in test [3] (1 µM, Pre-Ischemia, Pre-Drug); 73±7^a,b mmHg in test [3] (3 µM, 30 Min Post-Reperfusion); 144±6 mmHg in test [3] (3 µM, Pre-Ischemia, Post-Drug); 148±6 mmHg in test [3] (3 µM, Pre-Ischemia, Pre-Drug). Further, the LVDP is 86±6^a,b mmHg in test [3] (10 µM, 30 Min Post-Reperfusion); 123±5 mmHg in test [3] (10 µM, Pre-Ischemia, Post-Drug); 130±5 mmHg in test [3] (10 µM, Pre-Ischemia, Pre-Drug). Also, the EC25 in test [3] came to 6.1 µM. In test [3] (at 3 and 10 µM concentrations, Figure 2C), the “reperfusion LDH release” value was “significantly reduced it”.
On to `COc1cc2nc(N3CCN(C(=O)c4ccco4)CC3)nc(N)c2cc1OC` [prazosin], for which, in test [4], the “concentration from which the methoxamine-tension curve was shifted to the right” value amounted to 1 nM.

The values above are taken from patent EP0596449A2, “Serotonin receptor antagonists for treating myocardial ischemia” (E.R. SQUIBB & SONS, INC., priority 1992, dated 1994).
